Measurements: patent US10336702B2, “Pharmaceutically active compounds” (BERGENBIO ASA, priority 2015, dated 2019)

How the values were obtained:
p-Akt2 in WM115 cells = molecular target: T1, p-Akt2 in WM115 cells (Homo sapiens, UniProt P31751); experiment: Phospho-Akt cellular SureFire assay, p-Akt2 in WM115 cells; format: cell-based; conditions: insulin stimulated, read-out: Biological Assay 2 IC50 (nM) Akt2 WM115
T1 construct: SureFire assays to detect cellular p-Akt1, p-Akt2 and p-Akt3 levels in WM115 cells (Akt2/3) and LNCaP cells (Akt1); endogenous in cells; host or cells: WM115 (ECACC 91061232), insulin-stimulated
T1 sequence (P31751 whole entry): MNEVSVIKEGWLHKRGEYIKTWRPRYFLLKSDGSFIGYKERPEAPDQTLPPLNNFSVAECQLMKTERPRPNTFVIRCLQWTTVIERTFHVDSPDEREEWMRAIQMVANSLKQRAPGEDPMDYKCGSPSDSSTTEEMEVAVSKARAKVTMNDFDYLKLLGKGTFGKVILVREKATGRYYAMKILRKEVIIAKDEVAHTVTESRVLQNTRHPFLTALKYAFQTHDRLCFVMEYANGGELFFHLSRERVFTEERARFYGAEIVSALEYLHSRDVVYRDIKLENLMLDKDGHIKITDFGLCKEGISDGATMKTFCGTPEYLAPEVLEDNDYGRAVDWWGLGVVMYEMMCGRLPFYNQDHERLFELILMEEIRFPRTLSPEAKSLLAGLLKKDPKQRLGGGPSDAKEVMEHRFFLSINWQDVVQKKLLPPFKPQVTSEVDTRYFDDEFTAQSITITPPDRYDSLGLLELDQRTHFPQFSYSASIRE
Description: (§1) Biological Assay 2: Phospho-Akt (p-Akt) Cellular SureFire Assays
(§2) The following describes SureFire assays to detect cellular p-Akt1, p-Akt2 and p-Akt3 levels in WM115 cells (Akt2/3) and LNCaP cells (Akt1). In the case of Akt2 and Akt3, Streptavidin-coated donor beads capture a biotinylated anti-mouse antibody that in turn recognises a mouse total Akt antibody which is specific to each isoform. The protein A-conjugated acceptor beads capture an antibody that recognises the phosphoprotein. Similarly in the Akt1 kit, the donor and acceptor beads are used to capture each antibody pair consisting of an antibody that specifically recognises Akt1 as well as an antibody that recognises the phosphoprotein. In each case, close proximity of the beads allows energy transfer from donor to acceptor.
(§3) Custom kit from TGR/Perkin Elmer for Akt2/3 containing anti-(pThr308)Akt antibody and biotinylated anti-mouse capture antibody.
Total Akt2 antibody (NEB UK, 5239)
(§4) WM115 cells (ECACC, 91061232) cultured in MEM culture media (M2279) supplemented with 2 mM L-glutamine (G7513), 1% non-essential amino acids (M7145), 1% sodium pyruvate (S8636) and 10% FBS (F0804)
(§5) Cell treatment: 1×10^5 WM115 cells or 5×10^4 LNCaP cells were seeded into each well of a 96 well poly-D-Lysine coated tissue culture plate and incubated overnight at 37° C.+5% CO2. Media was removed from cells and replaced with assay buffer consisting of the full culture media described above but with 0.1% FBS instead of 10% FBS. Only WM115 cells were stimulated at 37° C.+5% CO2 for 10 min with 5 μL insulin at a final concentration of 100 nM. Cells were incubated with 5 μL of test compound at a final DMSO concentration of 0.3% for 15 min at 37° C.+5% CO2. Cell lysis was carried out according to kit instructions.
(§6) Assay format (performed in subdued lighting): 4 μL cell lysate and 5 μL reaction buffer were incubated together in the dark at room temperature for 2 h. Reaction buffer was supplemented with a 1/5 dilution of activation buffer, a 1/50 dilution of acceptor beads and in the case of the custom kits, antibodies were added at dilutions of 1/20,000 for Akt2 and 1/2,000 for Akt3.
(§7) 2 μL dilution buffer, supplemented with a 1/20 dilution of donor beads was added to each well and incubated for a further 2 h. Plates were read with the EnVision® Multilabel Plate Reader and using the AlphaScreen settings. Compound IC50 was determined using a 4-parameter equation.

Akt1 = molecular target: T2, Akt1 (Homo sapiens, UniProt P31749); experiment: Akt activation assay (PDK1-mediated activation, LANCE Ultra crosstide TR-FRET), Akt1; format: biochemical; conditions: read-out: Biological Assay 1 IC50 (nM) Akt1
T2 construct: unspecified tag, removed (detagged) (cleaved yes); purchased SignalChem and Proteros (Akt1); Merck Millipore (PDK1) 14-452 (PDK1); none given for Akt1
T2 sequence (P31749 whole entry): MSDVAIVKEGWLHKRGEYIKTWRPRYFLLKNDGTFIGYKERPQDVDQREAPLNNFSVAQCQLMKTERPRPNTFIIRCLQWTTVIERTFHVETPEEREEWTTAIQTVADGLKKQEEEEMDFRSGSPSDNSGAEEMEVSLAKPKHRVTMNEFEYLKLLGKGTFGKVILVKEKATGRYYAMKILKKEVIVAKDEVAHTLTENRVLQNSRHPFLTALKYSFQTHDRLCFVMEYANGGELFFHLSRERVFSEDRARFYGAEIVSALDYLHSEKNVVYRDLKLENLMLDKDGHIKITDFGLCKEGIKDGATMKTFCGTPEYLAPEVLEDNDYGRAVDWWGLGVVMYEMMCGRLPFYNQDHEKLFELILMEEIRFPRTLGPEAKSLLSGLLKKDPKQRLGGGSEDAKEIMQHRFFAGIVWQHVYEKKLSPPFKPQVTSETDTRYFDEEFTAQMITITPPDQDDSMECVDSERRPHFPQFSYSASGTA
Protocol: (§8) Biological Assay 1: Akt Activation Assay
(§9) Addition of a Europium-labelled antibody specific to the phosphopeptide allows energy transfer from the Europium donor to the Ultra Ulight™ acceptor if close enough in proximity.
(§10) Full length active His6-tagged PDK1 was obtained from Merck Millipore (14-452).
(§11) 1× assay buffer (AB): 50 mM HEPES pH 7.5, 1 mM EGTA, 10 mM MgCl2, 0.01% Tween. Immediately before use, DTT to a concentration of 2 mM was added.
(§12) To prepare lipid vesicles: 1 mg/ml PtdIns(3,4,5)P3 solution (in 10 mM HEPES 7.5) was added to 16.7 mg/ml DOPS/DOPC mixture (in 10 mM HEPES pH 7.5) in a ratio of 1:8.3. MilliQ water was added to the solution to generate concentrations of 400 μM DOPS, 400 μM DOPC and 40 μM PtdIns(3,4,5)P3. The mixture was subjected to 5× freeze/thaw cycles and aliquots stored at −20° C.
(§13) 5 μL enzyme in 1×AB was incubated with 2.5 μL test compound. To start the reaction 2.5 μL reaction mix was added which consisted of PDK1, lipid preparations, crosstide and ATP in 1×AB. Final assay concentrations were as follows: 1% DMSO, 5 nM SignalChem Akt1/15 nM SignalChem Akt2/3 nM Signalchem Akt3/5 nM Proteros Akt1/5 nM proteros Akt2/5 nM Proteros Akt3, 5 nM PDK1, 5.5 μM DOPS, 5.5 μM DOPC, 0.55 μM PtdIns(3,4,5)P3, 100 μM ATP, 100 nM LANCE® Ultra Ulight™-Crosstide. After 30 min, the reaction was stopped using 5 μL 40 μM EDTA in 1× Detection buffer for 5 min. For detection, 5 μL 8 nM LANCE® Ultra Europium-anti-phospho-Crosstide antibody in 1× Detection buffer was added to each well and incubated for 1 h. Plates read with the EnVision® Multilabel Plate Reader, excitation at 320 nm and emission at 665 nm and 615 nm. Compound IC50 was determined using a 4-parameter equation.

Akt2 = molecular target: T3, Akt2 (Homo sapiens, UniProt P31751); experiment: Akt activation assay (PDK1-mediated activation, LANCE Ultra crosstide TR-FRET), Akt2; format: biochemical; conditions: read-out: Biological Assay 1 IC50 (nM) Akt2
T3 construct: unspecified tag, removed (detagged) (cleaved yes); purchased SignalChem and Proteros (Akt2); Merck Millipore (PDK1) 14-452 (PDK1); none given for Akt2
T3 sequence (P31751 whole entry): as the sequence (P31751 whole entry) above
Protocol: as §8, §9, §10, §11, §12, §13

p-Akt3 in WM115 cells = molecular target: T4, p-Akt3 in WM115 cells (Homo sapiens, UniProt Q9Y243); experiment: Phospho-Akt cellular SureFire assay, p-Akt3 in WM115 cells; format: cell-based; conditions: insulin stimulated, read-out: Biological Assay 2 IC50 (nM) Akt3 WM115
T4 construct: SureFire assays to detect cellular p-Akt1, p-Akt2 and p-Akt3 levels in WM115 cells (Akt2/3) and LNCaP cells (Akt1); endogenous in cells; host or cells: WM115 (ECACC 91061232), insulin-stimulated
T4 sequence (Q9Y243 whole entry): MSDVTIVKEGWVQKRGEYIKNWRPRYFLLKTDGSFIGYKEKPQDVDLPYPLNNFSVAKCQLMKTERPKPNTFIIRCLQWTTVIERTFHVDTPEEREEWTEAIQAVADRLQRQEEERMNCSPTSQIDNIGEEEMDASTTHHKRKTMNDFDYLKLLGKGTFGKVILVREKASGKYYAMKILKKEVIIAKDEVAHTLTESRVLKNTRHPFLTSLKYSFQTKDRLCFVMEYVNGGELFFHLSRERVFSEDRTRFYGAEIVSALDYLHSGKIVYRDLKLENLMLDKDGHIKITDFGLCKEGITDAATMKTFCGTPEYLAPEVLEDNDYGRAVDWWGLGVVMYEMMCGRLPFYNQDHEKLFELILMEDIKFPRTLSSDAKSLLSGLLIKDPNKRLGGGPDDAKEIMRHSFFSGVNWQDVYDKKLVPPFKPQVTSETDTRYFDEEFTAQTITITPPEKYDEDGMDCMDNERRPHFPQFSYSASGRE
Description: as §1, §2, §3
Total Akt3 antibody (R&D Systems MAB 1463)
as §4, §5, §6, §7

Akt3 = molecular target: T5, Akt3 (Homo sapiens, UniProt Q9Y243); experiment: Akt activation assay (PDK1-mediated activation, LANCE Ultra crosstide TR-FRET), Akt3; format: biochemical; conditions: read-out: Biological Assay 1 IC50 (nM) Akt3
T5 construct: unspecified tag, removed (detagged) (cleaved yes); purchased SignalChem and Proteros (Akt3); Merck Millipore (PDK1) 14-452 (PDK1); none given for Akt3
T5 sequence (Q9Y243 whole entry): as above
Protocol: as §8, §9, §10, §11, §12, §13

Row | Compound | IC50 (p-Akt2 in WM115 cells) | IC50 (Akt1) | IC50 (Akt2) | IC50 (p-Akt3 in WM115 cells) | IC50 (Akt3)
1 | NC1(c2ccc(-c3ncc(NC(=O)C[C@H]4CC[C@H](N5CCOC5=O)CC4)cc3-c3ccccc3)cc2)CCC1 [Example A27, N-(6-(4-(1-aminocyclobutyl)phenyl)-5-phenylpyridin-3-yl)-2-(trans-4-(2-oxooxazolidin-3-yl)cyclohexyl)acetamide] | 790 nM | 4100 nM | 180 nM | 51 nM | 19 nM
2 | CCC(=O)N(C)[C@H]1CC[C@H](CC(=O)Nc2cc(-c3ccccc3)c(-c3ccc([C@]4(N)C[C@H](F)C4)cc3)nn2)CC1 [Example 123, N-(trans-4-(2-((6-(4-(trans-1-amino-3-fluorocyclobutyl)phenyl)-5-phenylpyridazin-3-yl)amino)-2-oxoethyl)cyclohexyl)-N-methylpropionamide] | 1700 nM | > 25000 nM | 230 nM | 38 nM | 12 nM
3 | CC(=O)N(C(C)C)[C@H]1CC[C@H](CC(=O)Nc2cnc(-c3ccc(C4(N)CCC4)cc3)c(-c3ccccc3)c2)CC1 [Example 49, N-(6-(4-(1-aminocyclobutyl)phenyl)-5-phenylpyridin-3-yl)-2-(trans-4-(N-isopropylacetamido)cyclohexyl)acetamide] | 2900 nM | 6900 nM | 530 nM | 140 nM | 280 nM
4 | Cc1nncn1[C@H]1CC[C@H](CC(=O)Nc2cnc(-c3ccc(C4(N)CCC4)cc3)c(-c3ccccc3)c2)CC1 [Example A17, N-(6-(4-(1-aminocyclobutyl)phenyl)-5-phenylpyridin-3-yl)-2-(trans-4-(3-methyl-1,2,4-triazol-4-yl)cyclohexyl)acetamide] | 12000 nM | 1500 nM | 420 nM | 1000 nM | 62 nM
5 | NC1(c2ccc(-c3ncc(NC(=O)C(F)C4CCN(S(=O)(=O)C5CC5)CC4)cc3-c3ccccc3)cc2)CCC1 (stereo not shown) [Example 40, N-(6-(4-(1-aminocyclobutyl)phenyl)-5-phenylpyridin-3-yl)-2-(1-(cyclopropylsulfonyl)piperidin-4-yl)-2-fluoroacetamide] | 2900 nM | 9800 nM | 440 nM | 220 nM | 360 nM
6 | CN(C(=O)C(F)F)[C@H]1CC[C@H](CC(=O)Nc2cc(-c3ccccc3)c(-c3ccc([C@]4(N)C[C@](C)(O)C4)cc3)cn2)CC1 [Example 109, N-(trans-4-(2-((5-(4-(trans-1-amino-3-hydroxy-3-methylcyclobutyl)phenyl)-4-phenylpyridin-2-yl)amino)-2-oxoethyl)cyclohexyl)-2,2-difluoro-N-methylacetamide] | 780 nM | > 30000 nM | 220 nM | 13 nM | 12 nM
7 | CC(=O)N(C)[C@H]1CC[C@H](CC(=O)Nc2cc(-c3ccccc3F)c(-c3ccc([C@]4(N)C[C@](C)(O)C4)cc3)cn2)CC1 [Example 94, N-(5-(4-(trans-1-amino-3-hydroxy-3-methylcyclobutyl)phenyl)-4-(2-fluorophenyl)pyridin-2-yl)-2-(trans-4-(N-methylacetamido)cyclohexyl)acetamide] | 550 nM | 20000 nM | 120 nM | 13 nM | 11 nM
8 | CC(=O)N(C)[C@H]1CC[C@H](CC(=O)Nc2cnc(-c3ccc(C4(N)CC4)cc3)c(-c3ccccc3)c2)CC1 [Example 12, N-(6-(4-(1-aminocyclopropyl)phenyl)-5-phenylpyridin-3-yl)-2-(trans-4-(N-methylacetamido)cyclohexyl)acetamide] | 2300 nM |  | 1000 nM | 220 nM | 84 nM
9 | CCC(=O)N(C)[C@H]1CC[C@H](CC(=O)Nc2cnc(-c3ccc(C4(N)CC4)c(F)c3)c(-c3ccccc3)c2)CC1 [Example 90, N-(trans-4-(2-((6-(4-(1-aminocyclopropyl)-3-fluorophenyl)-5-phenylpyridin-3-yl)amino)-2-oxoethyl)cyclohexyl)-N-methylpropionamide] | 6500 nM |  | 2500 nM | 170 nM | 120 nM

Next, values leading:

Row | IC50 (p-Akt2 in WM115 cells) | IC50 (Akt1) | IC50 (Akt2) | IC50 (p-Akt3 in WM115 cells) | IC50 (Akt3) | Compound
10 | 2300 nM | > 19000 nM | 100 nM | 160 nM | 14 nM | CCC(=O)N(C)[C@H]1CC[C@H](CC(=O)Nc2cc(-c3ccccc3F)c(-c3ccc(C4(N)CCC4)cc3)cn2)CC1 [Example A102, N-(trans-4-(2-((5-(4-(1-aminocyclobutyl)phenyl)-4-(2-fluorophenyl)pyridin-2-yl)amino)-2-oxoethyl)cyclohexyl)-N-methylpropionamide]
11 | 10000 nM |  | 1100 nM | 420 nM | 44 nM | COC(=O)N(C)C1CCC(CC(=O)Nc2cnc(-c3ccc(C4(N)CC(F)C4)cc3)c(-c3ccsc3)c2)CC1 (stereo not drawn) [Example A66, Methyl (trans-4-(2-((6-(4-(trans-1-amino-3-fluorocyclobutyl)phenyl)-5-(thiophen-3-yl)pyridin-3-yl)amino)-2-oxoethyl)cyclohexyl)(methyl)carbamate]
12 | 4700 nM | 10000 nM | 300 nM | 180 nM | 15 nM | CCOC(=O)N(C)[C@H]1CC[C@H](CC(=O)Nc2cc(-c3ccsc3)c(-c3ccc([C@]4(N)C[C@](C)(O)C4)cc3)cn2)CC1 [Example A90, Ethyl (trans-4-(2-((5-(4-(trans-1-amino-3-hydroxy-3-methylcyclobutyl)phenyl)-4-(thiophen-3-yl)pyridin-2-yl)amino)-2-oxoethyl)cyclohexyl)(methyl)carbamate]
13 | 3200 nM |  | 430 nM | 41 nM | 9 nM | CC(=O)N(C)[C@H]1CC[C@H](CC(=O)Nc2cc(-c3ccsc3)c(-c3ccc(C4(N)CCC4)cc3)nn2)CC1 [Example A97, N-(6-(4-(1-aminocyclobutyl)phenyl)-5-(thiophen-3-yl)pyridazin-3-yl)-2-(trans-4-(N-methylacetamido)cyclohexyl)acetamide]
